Measurements as given in patent US20130178453A1, “Cannabinoid Agonists” (priority 2010, published 2013).
Read-outs that look alike come from different tables or passages of the source.

Assays:
hCB2 [1] = biological target: T1, hCB2 (Homo sapiens, UniProt P34972); test: hCB2 radioligand binding assay ([3H]-CP 55,940 displacement); conditions: hCB2 IC50 (CP displ, nM, HEK), HEK membranes
Experimental: (§1) cDNA expression clones for human CB 1 (hCB1, Genbank Accession No. AY225225) and human CB2 (hCB2, Genbank Accession No. AY242132) expressed in vector pcDNA3.1+ were purchased from UMR cDNA Resource Center, Rolla, Mo. (Clone ID CNR01L000 for hCB1; CNR0200000 for hCB2).
(§2) Membranes were isolated from transfected cells as follows. Monolayers of cultured cells were washed twice with phosphate-buffered saline (PBS). […] Homogenates were centrifuged 10 minutes at 1000×g at 4° C. The supernatant was collected and was centrifuged for 1 hour at 40,000×g. The supernatant was then decanted and the resulting pellet was re-suspended in 20 mM HEPES, pH 7.4, 5 mM MgCl2, 1 mM EDTA, 10% sucrose with complete cocktail protease inhibitors. Protein concentration of membrane suspensions were measured by Bradford Protein Assay using bovine serum albumin as the standard (BioRad catalog #500-0006). Protein concentrations of membrane suspensions were adjusted with the final buffer in the range of 5 to 10 mg/mL and were stored at −80° C. until further use.
A rapid filtration technique using Millipore FB filter plates (Catalog #MADVNOB) and filtration apparatus (Millipore system Catalog MAVM0960R) with vacuum aspiration was used to harvest and rinse labeled membranes (8 times with 0.2 mL of chilled binding buffer). […] Binding data were analyzed using GraphPad Prism (GraphPad Software, Inc. San Diego, Calif.).

hCB2 [2] = biological target: T1, hCB2; test: hCB2 GTPγS agonist assay (HEK-293 membranes); assay type: biochemical
Experimental: as §1, §2
^35S GTPγS binding assays were performed by incubating recombinant cell membranes prepared above (5 μg) in the presence of scintillation proximity assay beads (SPA beads, Catalog #RPNQ0252 GE Healthcare, Buckinghamshire, England) in GTPγS binding buffer [50 mM HEPES (pH 7.4), 100 mM NaCl, 5 mM MgCl2, 0.001% saponin (Sigma catalog #S4521)] supplemented with 20 uM GDP (Sigma catalog #G7127) in the presence or absence of test compound. The reaction was carried out in 96-well microplates with 0.1 nM [^35S]GTPγS (specific activity=1250 Ci/mmol; Perkin Elmer catalog #NEG030X250UC) in a final volume of 100 μL. After a 90 min room temperature incubation, the reaction was analyzed using a scintillation counter (Perkin Elmer Microbeta instrument). Binding data were analyzed using GraphPad Prism.

hCB1 [3] = biological target: T2, hCB1 (Homo sapiens, UniProt P21554); test: hCB1 cAMP agonist assay (HEK-293 cells); assay type: cell-based
T2 sequence (P21554 whole entry): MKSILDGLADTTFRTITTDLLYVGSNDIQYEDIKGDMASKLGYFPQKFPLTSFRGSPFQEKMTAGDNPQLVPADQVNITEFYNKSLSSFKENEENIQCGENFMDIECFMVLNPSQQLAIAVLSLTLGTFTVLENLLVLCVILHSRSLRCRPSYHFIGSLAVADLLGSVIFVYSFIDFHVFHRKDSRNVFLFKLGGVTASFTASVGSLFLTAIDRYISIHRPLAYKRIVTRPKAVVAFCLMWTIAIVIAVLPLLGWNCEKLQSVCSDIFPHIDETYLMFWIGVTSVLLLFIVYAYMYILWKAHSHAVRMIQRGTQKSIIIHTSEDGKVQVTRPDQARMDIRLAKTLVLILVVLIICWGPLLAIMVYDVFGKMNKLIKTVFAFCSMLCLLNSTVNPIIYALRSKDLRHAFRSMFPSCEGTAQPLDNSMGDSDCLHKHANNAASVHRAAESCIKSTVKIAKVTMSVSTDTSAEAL

hCB1 [4] = biological target: T2, hCB1; test: hCB1 radioligand binding assay ([3H]-CP 55,940 displacement); conditions: hCB1 IC50 (CP displ, nM, HEK), HEK membranes
Source text: as §1
Stable, HEK-293-derived cell lines that recombinantly express hCB1 or hCB2 were established. In brief, the clone hCB1 (CNR1L) or hCB2 (CNR2) was transfected into human embryonic kidney cells (HEK-293) using Lipofectamine 2000 (Gibco, Cat#11668-019) according to the manufacturer's protocol. Transfected clones were isolated by single colony purification and clones were screened for receptor expression using a whole cell, ^3H—CP 55,940 radioligand binding assay. HEK-293 stable cells were maintained in Dulbecco's modified Eagles medium (DMEM) containing 10% fetal bovine serum, 2 mM L-glutamine and 0.5 mg/mL G-418.
Membranes were isolated from transfected cells as follows. Monolayers of cultured cells were washed twice with phosphate-buffered saline (PBS). Cells were scraped into 20 mM HEPES, pH 7.4, 10 mM EDTA containing complete cocktail protease inhibitors (Roche, Catalog #11 697 498 001), and were homogenized by an electric-powered mechanical probe homogenizer (Omni GLH; probe G7-195S) for 40 seconds at 7000 rpm. Homogenates were centrifuged 10 minutes at 1000×g at 4° C. The supernatant was collected and was centrifuged for 1 hour at 40,000×g. The supernatant was then decanted and the resulting pellet was re-suspended in 20 mM HEPES, pH 7.4, 5 mM MgCl2, 1 mM EDTA, 10% sucrose with complete cocktail protease inhibitors. Protein concentration of membrane suspensions were measured by Bradford Protein Assay using bovine serum albumin as the standard (BioRad catalog #500-0006). Protein concentrations of membrane suspensions were adjusted with the final buffer in the range of 5 to 10 mg/mL and were stored at −80° C. until further use.
Radioligand binding assays were performed by incubating membranes (2-10 μg protein) prepared from HEK-293 cells expressing recombinant human cannabinoid receptors, CB 1 or CB2, at room temperature with 0.5 nM cannabinoid receptor agonist, [^3H]-CP 55,940 (Perkin Elmer, catalog #NET 1051) in 0.2 mL of binding buffer (50 mM Tris-HCl, pH 7.5, 5 mM MgCl2, 2.5 mM EDTA) and 0.1% fatty acid free bovine serum albumin (Sigma Cat. #A0821) for 90 minutes. A rapid filtration technique using Millipore FB filter plates (Catalog #MADVNOB) and filtration apparatus (Millipore system Catalog MAVM0960R) with vacuum aspiration was used to harvest and rinse labeled membranes (8 times with 0.2 mL of chilled binding buffer). The radioactivity bound to the filters was counted with 0.05 mL of liquid scintillant (UltraGold MV, PerkinElmer catalog #6013159) in a scintillation counter (Perkin Elmer Microbeta instrument). Nonspecific binding was determined in the presence of unlabeled 1 μM CP 55,940 (Sigma Aldrich, catalog #C1112). Binding data were analyzed using GraphPad Prism (GraphPad Software, Inc. San Diego, Calif.).

hCB2 [5] = biological target: T1, hCB2; test: hCB2 cAMP agonist assay (HEK-293 cells); assay type: cell-based
Experimental: as §1
cAMP assays were performed in HEK-293 cells stably expressing human CB 1 or CB2 receptors. […] Cells suspensions were centrifuged and the cells were washed once with PBS, were centrifuged again, and the cells were resuspended in HBSS (Hank's Balanced Salt Solution, Cellgro, Cat #21-022-CV) solution containing 10 mM HEPES and 0.1% fatty acid free BSA (Sigma, Cat #A0281). Cell suspensions were prepared at 1,500,000 cells per mL. Stock solutions of test substances (10 mM) in DMSO were diluted to 1 mM using 30% DMSO as diluent. Test substances of solutions (1 mM) were further diluted down to 3× of final assay concentrations in the above HBSS buffer containing 0.1% BSA in the presence of 90 uM forskolin (Sigma Cat#F6886). To perform the assay, 20 μL of cell suspension (1,500,000 cells/mL) were added to each well in 96 well plate and treated with 10 μL test substance solution diluted as described above. Cells and compounds were incubated at 37° C. for 30 minutes. Cells were lysed and cAMP concentration was measured using DiscoveRx-XS+ cAMP assay kit (DiscoveRx Corporation Ltd., Fremont, Calif., USA, Cat #90-0075-03), following the manufacturer's protocol. GraphPad Prism software was used to calculate EC50 values using sigmoidal dose response curve fitting. The maximal amount of cAMP produced by forskolin was defined as 100%.

[6] = GTPγS agonist, HEK membranes, read-out: hCB2 EC50 (GTPyS ag, nM, HEK)
[7] = cAMP agonist, HEK, 96-well, read-out: hCB1 EC50 (cAMP ag, nM, HEK (96-well))
[8] = cAMP agonist, HEK, 96-well, read-out: hCB2 EC50 (cAMP ag, nM, HEK (96-well))

T1 sequence (P34972 whole entry): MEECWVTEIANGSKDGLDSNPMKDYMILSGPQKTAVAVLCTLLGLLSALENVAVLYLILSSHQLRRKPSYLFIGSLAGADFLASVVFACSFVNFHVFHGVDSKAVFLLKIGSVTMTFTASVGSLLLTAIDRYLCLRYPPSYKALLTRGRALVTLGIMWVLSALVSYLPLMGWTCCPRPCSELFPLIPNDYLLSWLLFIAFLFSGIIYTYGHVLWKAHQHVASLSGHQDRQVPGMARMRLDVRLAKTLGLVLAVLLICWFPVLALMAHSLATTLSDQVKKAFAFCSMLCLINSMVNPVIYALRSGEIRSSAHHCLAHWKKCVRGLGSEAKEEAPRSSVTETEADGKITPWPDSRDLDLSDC

SMILES | IC50 (hCB2 [1]) | EC50 (hCB2 [2]; [6]) | EC50 (hCB1 [3]; [7]) | IC50 (hCB1 [4]) | EC50 (hCB2 [5]; [8]) | EC50 (hCB2 [2]) | hCB1 EC50 (cAMP ag, nM, HEK (96-well)) (hCB1 [3]; cAMP agonist, HEK, 96-well) | EC50 (hCB2 [5]) | EC50 (hCB1 [3]) | hCB1 EC50 (cAMP ag, nM HEK (24-well)) (hCB1 [3]; cAMP agonist, HEK)
CCn1c(C(=O)c2c(C)n(CCN3CCOC3=O)c3ccccc23)cc2ccsc21 [Compound I-25] | < 100 nM | < 100 nM | 1000 to 10000 nM | > 10000 nM | < 100 nM | – | – | – | – | –
CCCn1c(C)c(C(=O)c2cc3scnc3n2CC)c2ccccc21 [Compound I-31] | 100 to 1000 nM | – | – | 1000 to 10000 nM | – | 100 to 1000 nM | NS (“Not Significant,” which means less than 30% agonist activity when compared to the positive control) | < 100 nM | – | –
CCCn1cc(C(=O)c2cc3ccsc3n2C)c2ccccc21 [Compound I-32] | < 100 nM | – | – | 100 to 1000 nM | – | < 100 nM | – | < 100 nM | 100 to 1000 nM | –
CCCn1c(C)c(C(=O)c2cc3ccsc3n2CC)c2cccc(OC)c21 [Compound I-36] | < 100 nM | – | – | 100 to 1000 nM | – | < 100 nM | – | < 100 nM | 100 to 1000 nM | –
CCCn1c(C(=O)c2cn(C)c3ccccc23)cc2ccsc21 [Compound I-47] | < 100 nM | – | 100 to 1000 nM | 100 to 1000 nM | – | 100 to 1000 nM | – | < 100 nM | – | –
CCCn1c(C)c(C(=O)c2cc3cc(Cl)sc3n2CCC)c2ccccc21 [Compound I-49] | < 100 nM | – | – | 1000 to 10000 nM | – | < 100 nM | NS (“Not Significant,” which means less than 30% agonist activity when compared to the positive control) | < 100 nM | – | –
CCCn1c(C(=O)c2c(C)n(C)c3ccccc23)cc2ccsc21 [Compound I-53] | 100 to 1000 nM | 100 to 1000 nM | – | > 10000 nM | 100 to 1000 nM | – | NS (“Not Significant,” which means less than 30% agonist activity when compared to the positive control) | – | – | –
CCCCn1c(C)c(C(=O)c2cc3ccsc3n2CCC)c2ccccc21 [Compound I-58] | < 100 nM | – | – | 100 to 1000 nM | – | < 100 nM | – | < 100 nM | < 100 nM | –
CCCn1c(C)c(C(=O)c2cc3ccsc3n2CCC)c2cc(C)ccc21 [Compound I-69] | < 100 nM | – | – | 1000 to 10000 nM | – | < 100 nM | NS (“Not Significant,” which means less than 30% agonist activity when compared to the positive control) | < 100 nM | – | –
CCCn1c(C)c(C(=O)c2cc3ccsc3n2CC2CCOCC2)c2ccccc21 [Compound I-72] | 100 to 1000 nM | 100 to 1000 nM | – | 100 to 1000 nM | < 100 nM | – | NS (“Not Significant,” which means less than 30% agonist activity when compared to the positive control) | – | – | –
CCCn1c(C(=O)c2c(C)n(CCN3CCOCC3)c3ccccc23)cc2ccsc21 [Compound I-73] | < 100 nM | – | – | 100 to 1000 nM | – | < 100 nM | – | < 100 nM | 100 to 1000 nM | –
CCCn1c(C)c(C(=O)c2cc3ccsc3[nH]2)c2ccccc21 [Compound I-74] | 100 to 1000 nM | – | – | 1000 to 10000 nM | – | 100 to 1000 nM | NS (“Not Significant,” which means less than 30% agonist activity when compared to the positive control) | 100 to 1000 nM | – | –
CCCn1c(C)c(C(=O)c2cc3cc(Cl)sc3[nH]2)c2c1CCCC2 [Compound I-76] | 100 to 1000 nM | 100 to 1000 nM | – | > 10000 nM | 100 to 1000 nM | – | NS (“Not Significant,” which means less than 30% agonist activity when compared to the positive control) | – | – | –
CCCn1c(C)c(C(=O)c2cc3ccsc3n2CCC)c2c1CCCC2 [Compound I-77] | < 100 nM | < 100 nM | – | 1000 to 10000 nM | < 100 nM | – | NS (“Not Significant,” which means less than 30% agonist activity when compared to the positive control) | – | – | NS (“Not Significant,” which means less than 30% agonist activity when compared to the positive control)
CCCn1c(C)c(C(=O)c2cc3ccsc3n2CCC)c2ccccc21 [Compound I-78] | < 100 nM | – | – | 1000 to 10000 nM | – | < 100 nM | NS (“Not Significant,” which means less than 30% agonist activity when compared to the positive control) | < 100 nM | – | NS (“Not Significant,” which means less than 30% agonist activity when compared to the positive control)
CCCn1c(C)c(C(=O)c2cc3ccsc3n2CCC)c2c1CCCCC2 [Compound I-80] | < 100 nM | < 100 nM | 1000 to 10000 nM | 100 to 1000 nM | < 100 nM | – | – | – | – | –
CCCn1c(C)c(C(=O)c2cc3sccc3[nH]2)c2ccccc21 [Compound I-81] | 100 to 1000 nM | – | – | 1000 to 10000 nM | – | 100 to 1000 nM | NS (“Not Significant,” which means less than 30% agonist activity when compared to the positive control) | 100 to 1000 nM | – | –
